Literature values, collected in patent US20100136094A1, “Systems for modulating inflammation” (Searete LLC, a limited liability corporation of the state …, priority 2008, published 2010).

Columns and labels:
[1] = system: Src family kinase; details: Sanjuan et al. 2006
[2] = system: proteasomal activity in cultured breast cancer cells; details: on binding copper, Chen et al. 2006
[3] = system: aldehyde dehydrogenase
[4] = system: mice; details: Nakamura et al. 2007
[5] = biological target: Toll-like receptor 4 (Homo sapiens, UniProt O00206); details: Nakamura et al. 2007
Chain of Toll-like receptor 4 (O00206 24-839, species assumed): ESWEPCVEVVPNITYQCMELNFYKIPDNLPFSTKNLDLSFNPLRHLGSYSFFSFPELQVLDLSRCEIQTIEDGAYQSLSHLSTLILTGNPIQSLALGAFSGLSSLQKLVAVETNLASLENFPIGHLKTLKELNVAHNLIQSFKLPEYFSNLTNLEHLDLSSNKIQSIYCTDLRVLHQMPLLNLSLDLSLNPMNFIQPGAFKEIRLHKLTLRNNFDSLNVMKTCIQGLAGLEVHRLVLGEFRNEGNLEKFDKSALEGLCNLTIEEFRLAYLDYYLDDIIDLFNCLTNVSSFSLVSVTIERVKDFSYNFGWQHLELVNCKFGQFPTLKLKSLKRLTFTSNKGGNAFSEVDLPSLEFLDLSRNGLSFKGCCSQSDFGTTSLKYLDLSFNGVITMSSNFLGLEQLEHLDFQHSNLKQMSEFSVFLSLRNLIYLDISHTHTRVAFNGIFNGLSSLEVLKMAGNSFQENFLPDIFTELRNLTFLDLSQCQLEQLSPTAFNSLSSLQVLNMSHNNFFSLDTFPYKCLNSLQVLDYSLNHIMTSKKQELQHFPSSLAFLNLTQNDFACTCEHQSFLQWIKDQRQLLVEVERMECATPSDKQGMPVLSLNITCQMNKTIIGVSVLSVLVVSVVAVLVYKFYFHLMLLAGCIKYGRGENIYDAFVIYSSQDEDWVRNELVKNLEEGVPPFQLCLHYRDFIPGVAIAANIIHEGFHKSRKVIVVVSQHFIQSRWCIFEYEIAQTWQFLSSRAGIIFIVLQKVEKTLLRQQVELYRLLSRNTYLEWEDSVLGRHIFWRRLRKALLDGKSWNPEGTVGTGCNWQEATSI

[6] = 400 mg infused over one hour, single agent; Looareesuwan et al. 1986
[7] = system: Src family kinases (Src, Lck, Yes, Fyn); details: at nanomolar concentrations
[8] = system: Epha1; details: at nanomolar concentrations

CCN(CC)CCCC(C)Nc1ccnc2cc(Cl)ccc12 (centres unmarked) [Chloroquine]
inhibition of CpG-induced Src family kinase activation, or its dependent cellular responses [1]: does not inhibit

CCN(CC)C(=S)SSC(=S)N(CC)CC [Disulfiram, 1-(diethylthiocarbamoyldisulfanyl)-N,N-diethyl-methanethioamide]
proteasomal activity [2]: inhibits proteasomal activity
inhibition of aldehyde dehydrogenase [3]: inhibits aldehyde dehydrogenase without toxicity

Cl.Cl.Nc1ccccc1Oc1ccc2c(N)nsc2c1 [Example M62812, 3-amino-6-(2-aminophenoxy)-1,2-benzisothiazole dihydrochloride]
prevention of lethal septic shock [4]: prevents lethal septic shock
inhibition of Toll-like receptor 4 [5]: inhibitor

CCN(CC)CCCC(C)Nc1ccnc2cc(Cl)ccc12.O=P(O)(O)O.O=P(O)(O)O (centres unmarked) [chloroquine phosphate, 7-chloro-4-[[4-(diethylamino)-1-methylbutyl]amino]quinoline phosphate (1:2)]
tolerability of intravenous infusion [6]: without complication

Cc1nc(Nc2ncc(C(=O)Nc3c(C)cccc3Cl)s2)cc(N2CCN(CCO)CC2)n1.O [dasatinib, N-(2-chloro-6-methylphenyl)-2-[[6-[4-(2-hydroxyethyl)-1-piperazinyl]-2-methyl-4-pyrimidinyl]amino]-5-thiazolecarboxamide, monohydrate]
inhibition of Src family kinases (Src, Lck, Yes, Fyn) [7]: inhibits
inhibition of Epha1 [8]: inhibits
